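These data come from cells grown in 96-well plates and exposed to compound for 48 hours at five concentrations. GI50 marks 50% less growth.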 Active and inactive are the calls of the source. Rule as the data show it: active = GI50 up to about 1.1 µM and inactive = higher.
Legend:
Experiment in all cases: growth of human tumour cells (NCI), 48 h
HOP-18 = tested on: HOP-18
SNB-78 = tested on: SNB-78
XF498 = tested on: XF498
DMS-273 = tested on: DMS-273
DMS-114 = tested on: DMS-114
KM-20L2 = tested on: KM-20L2
DLD-1 = tested on: DLD-1
LXFL 529 = tested on: LXFL 529
RXF 631 = tested on: RXF 631

Row | Compound | GI50 (HOP-18) | GI50 (SNB-78) | GI50 (XF498) | GI50 (DMS-273) | GI50 (DMS-114) | GI50 (KM-20L2) | GI50 (DLD-1) | GI50 (LXFL 529) | GI50 (RXF 631)
1 | COc1ccc2c(c1)C(=O)c1ccc(OC)cc1C2=S | > 100 µM (inactive) | 30.7 µM (inactive) | 85.3 µM (inactive) | > 100 µM (inactive) | > 100 µM (inactive) | > 100 µM (inactive) | 55.5 µM (inactive) | – | –
2 | COC(=O)c1csnn1 | – | – | > 100 µM (inactive) | > 100 µM (inactive) | > 100 µM (inactive) | > 100 µM (inactive) | – | > 100 µM (inactive) | –
3 | CC(=O)NC(CCCNC(=O)NCCCl)C(=O)NCc1ccccc1 (stereo unspecified) | > 100 µM (inactive) | – | – | > 100 µM (inactive) | > 100 µM (inactive) | > 100 µM (inactive) | – | > 100 µM (inactive) | > 100 µM (inactive)
4 | CN1C/C(=C\C=C\c2ccccc2)C(=O)/C(=C/C=C/c2ccccc2)C1 | – | > 100 µM (inactive) | > 100 µM (inactive) | > 100 µM (inactive) | > 100 µM (inactive) | > 100 µM (inactive) | > 100 µM (inactive) | 78.7 µM (inactive) | > 100 µM (inactive)
5 | O=C(O)c1ccccc1Cc1ccco1 | > 100 µM (inactive) | > 100 µM (inactive) | – | > 100 µM (inactive) | > 100 µM (inactive) | > 100 µM (inactive) | > 100 µM (inactive) | > 100 µM (inactive) | –
6 | CCc1cccc(C)c1NS(=O)(=O)c1ccccc1 | – | > 100 µM (inactive) | > 100 µM (inactive) | > 100 µM (inactive) | > 100 µM (inactive) | > 100 µM (inactive) | > 100 µM (inactive) | > 100 µM (inactive) | > 100 µM (inactive)
7 | CC1=C(C(=O)CC(=O)C(=O)Nc2cc(C)ccc2C)Sc2ccccc2N1 | > 100 µM (inactive) | > 100 µM (inactive) | > 100 µM (inactive) | – | > 100 µM (inactive) | – | 92.3 µM (inactive) | > 100 µM (inactive) | > 100 µM (inactive)
8 | CCOP(=O)(OCC)/C(C#N)=C/c1ccc[nH]1 | > 100 µM (inactive) | > 100 µM (inactive) | – | > 100 µM (inactive) | > 100 µM (inactive) | > 100 µM (inactive) | > 100 µM (inactive) | > 100 µM (inactive) | –
9 | Cc1ccc(SC2C(C)(C)N(C(C)C)P2(=O)N(C(C)C)C(C)C)cc1 (stereo unspecified) | > 100 µM (inactive) | > 68.5 µM (inactive) | – | 13.4 µM (inactive) | – | 34 µM (inactive) | – | 21.3 µM (inactive) | –
10 | CN(c1ccccc1)C1C(=O)N(c2ccccc2)C1/C=C/c1ccccc1 (stereo unspecified) | – | > 100 µM (inactive) | – | > 100 µM (inactive) | – | – | > 100 µM (inactive) | > 100 µM (inactive) | –
11 | CC(=O)ON(C(C)=O)C1C(COC(c2ccccc2)(c2ccccc2)c2ccccc2)OC2OC3(CCCC3)OC21 (stereo unspecified) | 49.3 µM (inactive) | – | 5.19 µM (inactive) | 3.57 µM (inactive) | 5.5 µM (inactive) | 5.19 µM (inactive) | 5.32 µM (inactive) | – | –
12 | CN(C)CN(C)c1nc(N(C)C)nc(N(C)C)n1 | > 100 µM (inactive) | > 100 µM (inactive) | > 100 µM (inactive) | > 100 µM (inactive) | 90.2 µM (inactive) | > 100 µM (inactive) | > 100 µM (inactive) | 84.7 µM (inactive) | –
13 | O=C(c1ccccc1)[C@H]1Nc2ccc(Cl)cc2C2c3ccccc3CC21 (stereo partly specified) | – | > 100 µM (inactive) | 21.5 µM (inactive) | 66.8 µM (inactive) | 69.3 µM (inactive) | > 100 µM (inactive) | > 100 µM (inactive) | 27.8 µM (inactive) | 27.8 µM (inactive)
14 | N#Cc1ccc(Sc2ccccc2)cc1C#N | 50.6 µM (inactive) | – | 23.1 µM (inactive) | 19.1 µM (inactive) | – | 75.3 µM (inactive) | 34 µM (inactive) | 59.7 µM (inactive) | 30.9 µM (inactive)
15 | C/C(=N/N)c1sc(-c2nc(C)c(/C(C)=N\N)s2)nc1C | > 67.1 µM (inactive) | > 100 µM (inactive) | 38.2 µM (inactive) | > 41.3 µM (inactive) | > 46.7 µM (inactive) | > 100 µM (inactive) | > 67.9 µM (inactive) | 50.8 µM (inactive) | –
16 | O=C1C=C(Nc2ccccc2C(=O)CC(=O)C(=O)Nc2ccc(Cl)cc2)c2ccccc2C1=O | 0.594 µM (active) | 6.37 µM (inactive) | 13.7 µM (inactive) | 13.8 µM (inactive) | 3.64 µM (inactive) | > 55.2 µM (inactive) | 5.56 µM (inactive) | 7.52 µM (inactive) | 30 µM (inactive)
17 | COc1cc2ccnc3c(=C(SC)SC)c(=O)c(c1OC)c23 | 13.3 µM (inactive) | – | – | 13.8 µM (inactive) | 17.3 µM (inactive) | 15.7 µM (inactive) | 13.9 µM (inactive) | 4.65 µM (inactive) | 14.8 µM (inactive)
18 | Cc1cc(C)c(/C=N/NS(=O)(=O)c2ccccc2)c(C)c1 | 59 µM (inactive) | > 100 µM (inactive) | – | > 100 µM (inactive) | 60.4 µM (inactive) | > 100 µM (inactive) | 91.8 µM (inactive) | 62.2 µM (inactive) | > 100 µM (inactive)
19 | COc1cc(=O)oc(/C=C/CO)c1C | > 100 µM (inactive) | – | > 100 µM (inactive) | > 100 µM (inactive) | > 100 µM (inactive) | > 100 µM (inactive) | > 100 µM (inactive) | > 100 µM (inactive) | > 100 µM (inactive)
20 | O=C1OC(CC(=O)c2ccc(Cl)cc2Cl)C(Cl)=C1Cl (stereo unspecified) | > 100 µM (inactive) | 33.1 µM (inactive) | 21.3 µM (inactive) | 39 µM (inactive) | 18.4 µM (inactive) | 21.1 µM (inactive) | 22.4 µM (inactive) | 17.1 µM (inactive) | 31.1 µM (inactive)
21 | CN1C/C(=C\c2ccco2)c2nc(N)nc(-c3ccco3)c2C1 | – | – | 23.6 µM (inactive) | 88.1 µM (inactive) | > 100 µM (inactive) | > 100 µM (inactive) | > 100 µM (inactive) | 74.1 µM (inactive) | –
22 | C1=CC=C2NCCCCCC/N=C3\C=CC=CC=C3NCCc3cccc(c3)CC/N=C/2C=C1 | – | > 100 µM (inactive) | – | 10.2 µM (inactive) | 13.3 µM (inactive) | 4.81 µM (inactive) | 36.6 µM (inactive) | 10.7 µM (inactive) | 11.2 µM (inactive)
23 | COc1ccc2nc3cc(Cl)ccc3c(Sc3ccccc3[N+](=O)[O-])c2c1 | > 100 µM (inactive) | 41.2 µM (inactive) | 29.4 µM (inactive) | > 100 µM (inactive) | > 100 µM (inactive) | > 100 µM (inactive) | > 100 µM (inactive) | > 100 µM (inactive) | 43.9 µM (inactive)
24 | O=S(O)CCCCSSCc1ccccc1CSSCCCCS(=O)O | 14.7 µM (inactive) | – | 12 µM (inactive) | 21.1 µM (inactive) | 14.9 µM (inactive) | 61 µM (inactive) | 24.6 µM (inactive) | 11.4 µM (inactive) | 23.1 µM (inactive)
25 | C[C@]12C=CC(=O)C=C1CC[C@@H]1[C@@H]2CC[C@]2(C)OC(=O)CC[C@@H]12 [TESTOLACTONE] | 98.4 µM (inactive) | 460 µM (inactive) | 245 µM (inactive) | > 490 µM (inactive) | 376 µM (inactive) | 456 µM (inactive) | > 500 µM (inactive) | > 500 µM (inactive) | > 472 µM (inactive)
